{
  "source": "ChEMBL document CHEMBL5316301",
  "about": "“Dual Nicotinamide Phosphoribosyltransferase (NAMPT) and Indoleamine 2,3-Dioxygenase 1 (IDO1) Inhibitors for the Treatment of Drug-Resistant Nonsmall-Cell Lung Cancer” (J Med Chem, 2023)",
  "key": {"A549 [1]": {"system": "A549", "assay": "Antiproliferative activity against NAMPT inhibitor-resistant A549 cells assessed as reduction in cell viability measured for 48 hrs by CCK-8 assay", "settings": "Homo sapiens"}, "A549 [2]": {"system": "A549", "assay": "Antitumor activity against NAMPT inhibitor-resistant A549 cells xenografted in athymic nude mouse assessed as tumor growth inhibition at 2 mg/kg, iv bid measured on day 21 by caliper method", "assay_type": "functional, Homo sapiens", "settings": "A549, 504 h, time 21 day, read-out: TGI"}, "[3]": {"target": "T1, Indoleamine 2,3-dioxygenase 1 (Homo sapiens, UniProt P14902)", "T1 sequence (P14902 whole entry)": "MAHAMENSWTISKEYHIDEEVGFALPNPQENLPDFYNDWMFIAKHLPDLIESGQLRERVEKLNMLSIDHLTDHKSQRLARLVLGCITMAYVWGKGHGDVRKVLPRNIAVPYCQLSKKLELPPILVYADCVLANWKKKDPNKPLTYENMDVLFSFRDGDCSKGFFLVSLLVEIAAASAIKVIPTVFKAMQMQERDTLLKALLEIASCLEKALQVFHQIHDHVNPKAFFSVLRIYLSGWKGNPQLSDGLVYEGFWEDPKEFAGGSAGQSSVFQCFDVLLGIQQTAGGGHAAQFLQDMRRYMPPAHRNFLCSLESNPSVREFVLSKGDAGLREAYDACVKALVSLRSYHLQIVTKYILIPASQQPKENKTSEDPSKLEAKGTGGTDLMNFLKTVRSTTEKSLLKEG", "assay": "Inhibition of human recombinant IDO1 assessed as reduction in N-formylkynurenine formation using L-tryptophan as substrate preincubated for 30 mins followed by substrate addition and measured after 10 mins by SpectraMax microplate reader analysis"}, "[4]": {"target": "T1, Indoleamine 2,3-dioxygenase 1", "assay": "Inhibition of human recombinant IDO1 in human HeLa cells assessed as reduction in N-formylkynurenine formation using L-tryptophan as substrate preincubated for 24 hrs followed by substrate addition and measured after 30 mins", "assay_type": "cell-based"}, "A549 [5]": {"system": "A549", "assay": "cells", "settings": "Homo sapiens, A549, 48 h"}, "A549 [6]": {"system": "A549", "assay": "Antiproliferative activity against NAMPT inhibitor-resistant A549 cells assessed as reduction in cell viability measured for 48 hrs in presence of epacadostat by CCK-8 assay", "assay_type": "functional, cell-based", "settings": "Homo sapiens, A549, 48 h"}, "A549 [7]": {"system": "A549", "assay": "cells", "settings": "Homo sapiens, A549, 48 h", "remark": "listed apart in the source"}, "A549 [8]": {"system": "A549", "assay": "Downregulation of IDO1 expression in NAMPT inhibitor-resistant A549 cells measured for 24 hrs by Western blot analysis", "assay_type": "functional, cell-based", "settings": "Homo sapiens, dose 5-10 µM"}, "A549 [9]": {"system": "A549", "assay": "Antimigratory activity against NAMPT inhibitor-resistant A549 cells assessed as reduction in cell migration at 40 uM incubated for 24 hrs in presence of FK866 by inverted microscopic analysis", "assay_type": "functional, cell-based", "settings": "Homo sapiens"}, "[10]": {"target": "Nicotinamide phosphoribosyltransferase (Homo sapiens, UniProt P43490)", "sequence (P43490 whole entry)": "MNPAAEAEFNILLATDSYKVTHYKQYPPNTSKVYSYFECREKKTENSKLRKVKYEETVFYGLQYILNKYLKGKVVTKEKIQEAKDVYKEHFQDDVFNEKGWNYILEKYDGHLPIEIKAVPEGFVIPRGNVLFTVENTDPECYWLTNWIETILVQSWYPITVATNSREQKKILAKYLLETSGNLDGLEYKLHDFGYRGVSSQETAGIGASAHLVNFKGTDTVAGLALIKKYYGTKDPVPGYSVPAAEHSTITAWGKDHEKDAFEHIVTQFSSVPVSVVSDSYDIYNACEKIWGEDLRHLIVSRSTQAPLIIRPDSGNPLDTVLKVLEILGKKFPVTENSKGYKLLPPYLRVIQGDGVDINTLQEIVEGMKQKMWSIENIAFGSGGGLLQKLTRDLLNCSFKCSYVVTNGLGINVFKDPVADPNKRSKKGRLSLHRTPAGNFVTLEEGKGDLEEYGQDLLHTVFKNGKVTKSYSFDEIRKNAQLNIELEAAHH", "assay": "Inhibition of recombinant NAMPT (unknown origin) incubated for 60 mins by SpectraMax microplate reader analysis"}},
  "note": "Activity calls are given as the source filed them. The calls are words filed in the database; no cut-off is given here.",
  "data": [
    {"smiles": "CC(=O)O[C@H]1C(=O)[C@@]2(C)[C@H]([C@H](OC(=O)c3ccccc3)[C@]3(O)C[C@H](OC(=O)[C@H](O)[C@@H](NC(=O)c4ccccc4)c4ccccc4)C(C)=C1C3(C)C)[C@]1(OC(C)=O)CO[C@@H]1C[C@@H]2O", "note": "[PACLITAXEL]", "values": [
      {"measurement": "Activity", "setting": "A549 [1]", "result": "Active"},
      {"measurement": "inhibition in vivo at 2 mg/kg", "setting": "A549 [2]", "result": 20.2, "unit": "%"}
    ]},
    {"smiles": "O=C(NCc1ccc(C(=O)N2CCC(CCNc3nonc3/C(=N/O)Nc3ccc(F)c(Br)c3)CC2)cc1)c1ccc2nccn2c1", "values": [
      {"measurement": "IC50", "setting": "[3]", "result": "> 1000", "unit": "nM"}
    ]},
    {"smiles": "O=C(CCCCNc1nonc1/C(=N/O)Nc1ccc(F)c(Br)c1)Nc1ccc(CNC(=O)c2ccc3nccn3c2)cc1", "values": [
      {"measurement": "IC50", "setting": "[3]", "result": 750, "unit": "nM"},
      {"measurement": "IC50", "setting": "[4]", "result": 649, "unit": "nM"}
    ]},
    {"smiles": "O=C(/C=C/c1cccnc1)NCCCCC1CCN(C(=O)c2ccccc2)CC1", "note": "[DAPORINAD]", "values": [
      {"measurement": "IC50", "setting": "A549 [5]", "result": 52200, "unit": "nM"},
      {"measurement": "IC50", "setting": "A549 [6]", "result": 34500, "unit": "nM"}
    ]},
    {"smiles": "NS(=O)(=O)NCCNc1nonc1/C(=N/O)Nc1ccc(F)c(Br)c1", "note": "[EPACADOSTAT]", "values": [
      {"measurement": "IC50", "setting": "A549 [7]", "result": 34500, "unit": "nM"},
      {"measurement": "Activity", "setting": "A549 [8]", "result": "inactive"},
      {"measurement": "IC50", "setting": "A549 [5]", "result": 61100, "unit": "nM"},
      {"measurement": "Activity", "setting": "A549 [9]", "result": "Active"}
    ]},
    {"smiles": "O=C(c1ccc2nccn2c1)N1CCC(CCNc2nonc2/C(=N/O)Nc2ccc(F)c(Br)c2)CC1", "values": [
      {"measurement": "IC50", "setting": "[3]", "result": "> 1000", "unit": "nM"}
    ]},
    {"smiles": "O=C(NCCCCNc1nonc1/C(=N/O)Nc1ccc(F)c(Br)c1)c1ccc2nccn2c1", "values": [
      {"measurement": "IC50", "setting": "[3]", "result": 660, "unit": "nM"},
      {"measurement": "IC50", "setting": "[4]", "result": 520, "unit": "nM"}
    ]},
    {"smiles": "O=C(Nc1ccc(CCNc2nonc2/C(=N/O)Nc2ccc(F)c(Br)c2)cc1)c1ccc2nccn2c1", "values": [
      {"measurement": "IC50", "setting": "[3]", "result": "> 1000", "unit": "nM"},
      {"measurement": "IC50", "setting": "[10]", "result": "> 10000", "unit": "nM"}
    ]}
  ]
}
